Measurements from publication PMC8073005, “Antifungal Activity and DNA Topoisomerase Inhibition of Hydrolysable Tannins from Punica granatum L” (International Journal of Molecular Sciences, 2021).
In brackets after ≈: the same amount, converted by molar mass. Several values for one entry are separate records, joined by “and”; a condition that tells them apart may be missing. Equal entries are not always repeated.

Columns and labels:
Candida parapsilosis = test: MIC, broth microdilution (human pathogens); format: cell-based; details: Lodderomyces parapsilosis; Candida parapsilosis; SDB, 30 °C, 48 h; read-out: Minimum inhibitory concentration (MIC)
Cryptococcus 67 = test: MIC, broth microdilution (human pathogens); format: cell-based; details: Cryptococcus 67; SDB, 30 °C, 48 h; read-out: Minimum inhibitory concentration (MIC)
Botrytis cinerea B2 = test: MIC, micro-spectrophotometric growth assay (phytopathogens); format: cell-based; details: for MIC: Botrytis cinerea B2, PDB, 24 °C, dark, imazalil at label dose, read-out: Minimum inhibitory concentration (MIC)
Candida albicans 41 = test: MIC, broth microdilution (human pathogens); format: cell-based; details: Candida albicans 41; SDB, 30 °C, 48 h; read-out: Minimum inhibitory concentration (MIC)
Aspergillus candidus 3 = test: MIC, broth microdilution (human pathogens); format: cell-based; details: Aspergillus candidus 3; SDB, 30 °C, 48 h; read-out: Minimum inhibitory concentration (MIC)
[1] = system: Cryptococcus neoformans ATCC 11240; test: MIC, broth microdilution (human pathogens); format: cell-based; details: ATCC11240; Cryptococcus neoformans ATCC 11240; SDB, 30 °C, 48 h; read-out: Minimum inhibitory concentration (MIC)
Coniella granati M0_C2 = test: MIC, micro-spectrophotometric growth assay (phytopathogens); format: cell-based; details: for growth reduction: C. granati, 48 h of incubation; for MIC: Coniella granati M0_C2, PDB, 24 °C, dark, imazalil at label dose, read-out: Minimum inhibitory concentration (MIC)
Candida zeylanoides 33 = test: MIC, broth microdilution (human pathogens); format: cell-based; details: Dujonia zeylanoides; Candida zeylanoides 33; SDB, 30 °C, 48 h; read-out: Minimum inhibitory concentration (MIC)
[2] = system: other genera tested (other fungi strains); test: Agar Disk Diffusion Assay, other genera; format: cell-based
Description: The antifungal activity of pomegranate compounds was evaluated against 19 clinically isolated fungal strains, including nine belonging to Candida albicans species, two belonging to Aspergillus genus, one belonging to Cryptococcus genus, and one Saccharomyces cerevisiae. The C. albicans strains were isolated on CHROMID agar, Aspergillus and Cryptococcus genus were isolated on SDA-CAF and one Saccharomyces cerevisiae on SDA. All the isolates were confirmed by matrix-assisted laser desorption ionization (MALDI) time-of-flight mass spectrometry (TOF/MS). Strains from the American Type Culture Collection (ATCC) were included. All strains were maintained in SDB with 20% (w/v) glycerol at −80 °C until use and sub-cultured in SDA before each test.
The preliminary determination of the antifungal activity of the target compounds (punicalagin, punicalin, ellagic acid, and gallic acid) from pomegranate was carried out by means of the agar disk diffusion assay, according to the standard procedure of the Clinical and Laboratory Standards Institute, with slight modifications. Plates containing SDA were uniformly spread with 100 μL of 10^3 conidia/mL of each strain suspension. […] Disks containing fluconazole (25 μg), amphotericin B (25 μg) and DMSO (20 μL) were used as the positive and the negative control, respectively. The antifungal activity of pomegranate compounds was evaluated by measuring the diameter of the clear inhibition zone formed right around the disks after 48 h incubation at 30 ± 1 °C. The experiment was carried out in triplicate.

Aspergillus candidus 25 = test: MIC, broth microdilution (human pathogens); format: cell-based; details: Aspergillus candidus 25; SDB, 30 °C, 48 h; read-out: Minimum inhibitory concentration (MIC)
[3] = target: T1, topoisomerase I from Candida albicans (Candida albicans, UniProt Q00313); test: Topoisomerase I supercoiled DNA relaxation inhibition; format: biochemical; details: mean ± SD; relaxation of supercoiled pBR322; concentration range 0.001–200 μM; read-out: IC50 Value Topoisomerase I
T1 sequence (Q00313 1-778): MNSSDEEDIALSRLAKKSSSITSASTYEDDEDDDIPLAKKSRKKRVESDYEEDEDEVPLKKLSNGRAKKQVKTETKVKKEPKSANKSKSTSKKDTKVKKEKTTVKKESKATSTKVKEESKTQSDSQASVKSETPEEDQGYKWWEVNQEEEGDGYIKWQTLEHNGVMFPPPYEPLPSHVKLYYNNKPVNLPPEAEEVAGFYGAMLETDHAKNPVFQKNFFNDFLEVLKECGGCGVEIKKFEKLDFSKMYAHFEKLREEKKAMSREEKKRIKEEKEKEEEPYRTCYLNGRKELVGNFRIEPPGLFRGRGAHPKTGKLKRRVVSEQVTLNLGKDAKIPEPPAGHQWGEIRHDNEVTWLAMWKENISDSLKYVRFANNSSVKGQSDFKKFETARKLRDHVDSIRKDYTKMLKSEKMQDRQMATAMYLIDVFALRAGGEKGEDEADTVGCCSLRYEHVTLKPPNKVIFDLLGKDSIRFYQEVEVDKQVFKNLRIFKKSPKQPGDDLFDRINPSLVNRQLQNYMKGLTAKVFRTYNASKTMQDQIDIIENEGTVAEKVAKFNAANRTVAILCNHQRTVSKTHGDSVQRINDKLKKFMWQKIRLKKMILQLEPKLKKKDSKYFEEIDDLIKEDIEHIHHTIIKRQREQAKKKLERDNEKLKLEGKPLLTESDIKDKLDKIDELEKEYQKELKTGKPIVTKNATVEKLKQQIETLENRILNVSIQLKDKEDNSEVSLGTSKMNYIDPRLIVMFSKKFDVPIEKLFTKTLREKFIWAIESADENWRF

Candida albicans 44 = test: MIC, broth microdilution (human pathogens); format: cell-based; details: Candida albicans 44; SDB, 30 °C, 48 h; read-out: Minimum inhibitory concentration (MIC)
[4] = system: Cryptococcus neoformans B 3501; test: MIC, broth microdilution (human pathogens); format: cell-based; details: B3501; Cryptococcus neoformans B 3501; SDB, 30 °C, 48 h; read-out: Minimum inhibitory concentration (MIC)
[5] = system: Candida albicans ATCC 10321; test: MIC, broth microdilution (human pathogens); format: cell-based; details: ATCC10321; Candida albicans ATCC 10321; SDB, 30 °C, 48 h; read-out: Minimum inhibitory concentration (MIC)
Candida albicans 40 = test: MIC, broth microdilution (human pathogens); format: cell-based; details: Candida albicans 40; SDB, 30 °C, 48 h; read-out: Minimum inhibitory concentration (MIC)
[6] = system: Cryptococcus var. grubii H99 serotype A; test: MIC, broth microdilution (human pathogens); format: cell-based; details: Cryptococcus var. grubii H99 serotype A; SDB, 30 °C, 48 h; read-out: Minimum inhibitory concentration (MIC)
Candida albicans 1 = test: MIC, broth microdilution (human pathogens); format: cell-based; details: Candida albicans 1; SDB, 30 °C, 48 h; read-out: Minimum inhibitory concentration (MIC)
[7] = system: C. albicans 1 (clinically isolated strain); test: Time-kill curves; format: cell-based, Candida albicans; details: compound at its MIC value, 0–96 h
Candida albicans 2 = test: MIC, broth microdilution (human pathogens); format: cell-based; details: Candida albicans 2; SDB, 30 °C, 48 h; read-out: Minimum inhibitory concentration (MIC)

Row | SMILES | MIC (Candida parapsilosis) [µM] | MIC (Cryptococcus 67) [µM] | MIC (Botrytis cinerea B2) | MIC (Candida albicans 41) [µM] | MIC (Aspergillus candidus 3) [µM] | MIC [1] [µM] | growth reduction (Coniella granati M0_C2) | MIC (Coniella granati M0_C2) | MIC (Candida zeylanoides 33) [µM] | MIC (Aspergillus candidus 25) [µM] | IC50 [3] [µM] | MIC (Candida albicans 44) [µM] | MIC [4] [µM] | MIC [5] [µM] | MIC (Candida albicans 40) [µM] | MIC [6] [µM] | MIC (Candida albicans 1) [µM] | time-kill curve (susceptibility time-course) [7] | MIC (Candida albicans 2) [µM] | further results
1 | O=c1oc2c(O)c(O)cc3c(=O)oc4c(O)c(O)cc1c4c23 [Ellagic Acid, ellagic acid] | 662 (≈ 200 µg/mL) | 662 (≈ 200 µg/mL) | 165.4 µM and 165 µM | 331 (≈ 100 µg/mL) | 662 (≈ 200 µg/mL) | 331 (≈ 100 µg/mL) | up to 60% | 165.4 µM and 165 µM | 331 (≈ 100 µg/mL) | 662 (≈ 200 µg/mL) | 56.6 ± 1.2 | 2.5 (≈ 0.755 µg/mL) | 331 (≈ 100 µg/mL) | 2.5 (≈ 0.755 µg/mL) | 331 (≈ 100 µg/mL) | 662 (≈ 200 µg/mL) | 5 (≈ 1.51 µg/mL) | lowest activity compared with the other compounds | 2.5 (≈ 0.755 µg/mL) | antifungal activity (growth curve) (Botrytis cinerea B2; B. cinerea, Figure S3): no or little antifungal activity; share of other strains with growth inhibition from 21 to 30 mm ([2]; 62.5 µg): 100%
2 | O=C1OC[C@H]2OC(O)[C@H](O)[C@@H](O)[C@@H]2OC(=O)c2cc(O)c(O)c(O)c2-c2c(O)c(O)c3oc(=O)c4c(c(O)c(O)c5oc(=O)c2c3c54)-c2c1cc(O)c(O)c2O (mixture of isomers) [Punicalin, punicalin] | 127 | 127 | 255.6 µM and 256 µM | 127 | 127 | 1.9 | up to 92% | 255.6 µM and 256 µM | 127 | 127 | 14.7 ± 0.9 | 127 | 1.9 | 127 | 127 | 127 | 3.8 | after 60 h of incubation, punicalin becomes less effective than punicalagin | 3.8 | share of other fungi strains with inhibition zone from 11 to 20 mm ([2]; 100 µg): 63%
